These results are taken from PubChem BioAssay (NCI).

Among the test systems are NCI/ADR-RES ovarian; A549 NSCLC; KM12 colon; SK-MEL-5 melanoma; HT29 colon; EKVX NSCLC; HCT-15 colon; UO-31 renal; NCI-H460 lung; HL-60(TB) leukemia; CAKI-1 renal; ACHN renal; SNB-19 CNS; UACC-62 melanoma; OVCAR-5 ovarian; IGROV1 ovarian; PC-3 prostate; NCI-H23 lung; HOP-92 NSCLC.
Holding throughout (assay): NCI-60 cell line screen, 48 h

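All cell lines were grown in 96-well plates and treated with compound for 48 hours. TGI: total growth inhibition.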 Where a SMILES comes first, the peptide text is derived from it. The star is where a group is joined. Boc = CC(C)(C)OC(=O)* Bounds are passed on as bounds.

In the case of `CSc1nncc2[nH]cnc12`, the TGI with NCI/ADR-RES ovarian, in the test with A549 NSCLC, in the test with KM12 colon, in the test on SK-MEL-5 melanoma, with HT29 colon and with EKVX NSCLC was > 100 µM each time. The TGI in the test with HCT-15 colon, with UO-31 renal, in the test on NCI-H460 lung, in the test on HL-60(TB) leukemia, in the test with CAKI-1 renal and in the test with ACHN renal was > 100 µM throughout. The TGI in the test on SNB-19 CNS, in the test with UACC-62 melanoma, in the test with OVCAR-5 ovarian, with IGROV1 ovarian, in the test on PC-3 prostate and in the test on NCI-H23 lung was > 100 µM in each case.

Consider `CCOC(=O)C(C)(C)/C=C\C(Cl)=C(Cl)Cl`, for which the TGI in the test with NCI/ADR-RES ovarian, in the test on A549 NSCLC, with KM12 colon, with SK-MEL-5 melanoma, in the test on HT29 colon and in the test on EKVX NSCLC was > 100 µM each time. The TGI in the test on UO-31 renal, with HL-60(TB) leukemia, with CAKI-1 renal, in the test with ACHN renal, in the test with SNB-19 CNS and with UACC-62 melanoma was > 100 µM each time. Besides, the TGI with OVCAR-5 ovarian, in the test with IGROV1 ovarian, in the test on HOP-92 NSCLC, in the test on PC-3 prostate and with NCI-H23 lung was > 100 µM each time.

With `O=c1c(O)c(-c2cc(O)c(O)cc2O)oc2cc(O)c(C3OC(CO)C(O)C(O)C3O)c(O)c12` (stereo not drawn), the TGI in the test on NCI/ADR-RES ovarian, with A549 NSCLC, in the test with KM12 colon, with HT29 colon, with EKVX NSCLC and in the test on HCT-15 colon was > 100 µM in each case. The TGI in the test on UO-31 renal, with NCI-H460 lung, in the test with HL-60(TB) leukemia, in the test with ACHN renal, in the test on SNB-19 CNS and in the test on UACC-62 melanoma was > 100 µM in each case. Besides, the TGI with OVCAR-5 ovarian, in the test on IGROV1 ovarian, in the test on HOP-92 NSCLC and with PC-3 prostate was > 100 µM in each case.

For the molecule `O[C@H]1[C@H](O)[C@H](O)CN2CCC[C@@H](O)[C@H]12`, the TGI in the test on NCI/ADR-RES ovarian, with A549 NSCLC, in the test on KM12 colon, in the test with SK-MEL-5 melanoma, in the test on HT29 colon and with EKVX NSCLC was > 100 µM each time. For the same molecule, the TGI in the test with HCT-15 colon, in the test on UO-31 renal, in the test with HL-60(TB) leukemia, in the test with CAKI-1 renal, in the test on ACHN renal and with SNB-19 CNS was > 100 µM each time. In addition, the TGI in the test with UACC-62 melanoma, in the test with OVCAR-5 ovarian, in the test on IGROV1 ovarian, in the test on HOP-92 NSCLC, in the test with PC-3 prostate and in the test with NCI-H23 lung was > 100 µM each time.

In the case of `O=C(O)c1cc(O)c2c(c1)Cc1cccc(O)c1C2=O`, the TGI is 93.9 µM in the test with NCI/ADR-RES ovarian; > 100 µM in the test on A549 NSCLC; 40 µM in the test with SK-MEL-5 melanoma; > 100 µM with HT29 colon; 80 µM with EKVX NSCLC; 33 µM with HCT-15 colon. Moreover, the TGI with UO-31 renal was 34.2 µM; in the test with NCI-H460 lung, 65.6 µM; in the test on HL-60(TB) leukemia, 47.2 µM; with ACHN renal it was 34.8 µM; with SNB-19 CNS it was 95.1 µM; in the test on UACC-62 melanoma it was 36.8 µM. Besides, the TGI was > 100 µM with OVCAR-5 ovarian, 41.3 µM with HOP-92 NSCLC, > 100 µM in the test on PC-3 prostate and > 100 µM in the test on NCI-H23 lung.

For `CCOCC(NC(=O)C(CC(C)C)NC(=O)OC(C)(C)C)C(N)=O` (stereo not drawn) (Boc-Leu-Ser(Et)-NH2; configuration not given here), the TGI in the test on NCI/ADR-RES ovarian, in the test with A549 NSCLC, in the test with KM12 colon, in the test with SK-MEL-5 melanoma, in the test with HT29 colon and with EKVX NSCLC was > 100 µM throughout. Further, the TGI in the test with HCT-15 colon, in the test on UO-31 renal, with HL-60(TB) leukemia, in the test with CAKI-1 renal, in the test with ACHN renal and with SNB-19 CNS was > 100 µM throughout. In addition, the TGI in the test on UACC-62 melanoma, in the test on OVCAR-5 ovarian, with IGROV1 ovarian, in the test with HOP-92 NSCLC, in the test on PC-3 prostate and in the test with NCI-H23 lung was > 100 µM throughout.

Turning to `CC1(C)C[C@H](O)[C@H](O)[C@]23C(=O)O[C@H](O)[C@H]2C(C=O)=CC[C@@H]13`, the TGI in the test with NCI/ADR-RES ovarian, in the test on A549 NSCLC, with KM12 colon, in the test with SK-MEL-5 melanoma, in the test with HT29 colon and in the test on EKVX NSCLC was > 100 µM throughout. Further, the TGI in the test on HCT-15 colon, in the test with UO-31 renal, in the test with NCI-H460 lung, with HL-60(TB) leukemia, with CAKI-1 renal and in the test with ACHN renal was > 100 µM in each case. The TGI in the test on SNB-19 CNS, with UACC-62 melanoma, in the test with IGROV1 ovarian, with PC-3 prostate and with NCI-H23 lung was > 100 µM each time.

Regarding `OCCN=C1c2ccccc2C2C(c3ccccc31)C1c3ccccc3C(=NCCO)c3ccccc3C21` (stereo not drawn), the TGI in the test on NCI/ADR-RES ovarian is 72.6 µM; in the test on A549 NSCLC it was 93 µM; in the test with KM12 colon, 44 µM; in the test on SK-MEL-5 melanoma, 35.2 µM; with HT29 colon, 34.8 µM; in the test with EKVX NSCLC, > 100 µM. For the same molecule, the TGI in the test on HCT-15 colon was 63.9 µM; in the test with UO-31 renal it was 32.6 µM; with NCI-H460 lung it was 58.3 µM; in the test with HL-60(TB) leukemia, 47.2 µM; with CAKI-1 renal, 39.5 µM; with ACHN renal it was 76.9 µM. For the same molecule, the TGI in the test with SNB-19 CNS was 41.4 µM; in the test on UACC-62 melanoma, 37.5 µM; in the test on OVCAR-5 ovarian it was 60.7 µM; in the test with IGROV1 ovarian, 98.5 µM; in the test on PC-3 prostate, 53.8 µM; in the test with NCI-H23 lung it was > 100 µM.
